Read-outs that look alike come from different tables or passages of the source.
How the values were obtained:
[1] = system: lung cancer cell line EBC-1; test: cancer cell proliferation inhibitory experiment (SRB); type: cell-based, human
Procedure: The following exemplary experimental protocol was performed to test the activity of the maleate salt compounds described herein.
An RPMI 1640 cell culture medium, fetal bovine serum (FBS) and trypsin were purchased from GIBCO Co., Ltd. (Grand Island, N.Y.), and sodium hydrogencarbonate, amphotericin B and gentamycin were used as signamic medical products. In addition, reagents such as sulforhodamine (SRB) B, Trisma Base, and trichloroacetic acid (TCA), which were reagents used in a cytotoxicity measurement experiment, were purchased from Sigma Chemical Co., Ltd. For MTS analysis, a Celltiter 96 Aqueous Non-Radioactive Cell Proliferation Assay product was purchased from Promega Co., Ltd. Further, a T-25 culture container used for cell culture, a 96-well plate and other disposable glass used for cell culture were obtained from Folkon (Lincoln Park, N.J.) products.
A drug used in the experiment was diluted as an experimental medium to a desired concentration in the test, and the final dimethylsulfoxide concentration was 0.5% or less.
Cancer cell lines used in the experiment were human-derived cancer cell lines, and a lung cancer cell line EBC-1. RPMI 1640 medium with 10% fetal bovine serum (FBS) was used and cultured in an incubator of 37° C. and 5% CO2 and subcultured once by 3 to 4 days.
Specifically, after the culture with the compound of the present disclosure was terminated, the culture solution was removed, and a cold TCA solution added to each well. The cells were left at 4° C. for 1 hour to be fixed. The TCA solution was removed, and the cells were dried at room temperature, incubated with a solution obtained by dissolving 0.4% SRB in a 1% acetic acid solution, left at room temperature for 30 minutes, and then stained. Extra SRB which was not bound to the cells was washed with a 1% acetic acid solution, and the SRB was eluted by adding a […] tris buffer solution (trisma base; unbuffered) of pH 10.3 to 10.5 to the stained cells.

[2] = PK parameters after bid (twice a day) administration; type: in vivo; details: for Cmax1 / Tmax1: after first daily dosing; for Cmax2 / Tmax2: after second daily dosing; for AUC / AUC(0-t): in vivo; for AUC: read-out: AUC(12-24 h)
From the text: FIG. 10 and Table 4 show the PK properties of the compound of Chemical Formula 2 administered twice a day (bid).
FIG. 11 and Table 5 show the PK properties of the compound of Chemical Formula 1 administered twice per day.

[3] = long-term stability study, chemical purity by HPLC; type: physicochemical; details: for chemical degradation: up to 15 months, in words
Procedure: (§1) The physical and chemical stability study was performed on the compounds of Chemical Formula 2 and Chemical Formula 1 (for reference purposes). The long-term stability study was conducted at defined temperatures and relative humidity levels (25° C./60% relative humidity (RH) and 40° C./75% RH). At regular intervals, a solid sample was analyzed by XRPD, TGMS and HPLC.
The results of the chemical purity determination for the compounds of Chemical Formula 1 and Chemical Formula 2 after 1-, 3- and 15-month exposure to 25° C./60% RH and 40° C./75% RH is presented in FIGS. 4 and 5.

[4] = dynamic vapor sorption (DVS) analysis of hygroscopicity; type: physicochemical; details: humidity range below 80%, 25° C., in words
Procedure: Differential scanning calorimetry (DSC) analysis was performed to confirm the thermal stability of the novel salts provided in the present disclosure, and dynamic vapor sorption (DVS) analysis was performed to confirm the hygroscopicity.
The DVS analysis was performed to confirm the hygroscopicity of the salts by using a DVS-1 device, and was performed at a relative humidity of 40%, 95%, and 0% at 25° C. for 60 minutes.

[5] = PK parameters in plasma after single administration; type: in vivo, Wistar rats; details: for AUC(0-inf) / AUC(0-t) / Cmax / Tmax: Wistar, rat, plasma
[6] = thermodynamic solubility in formulation vehicles (phosphate buffer pH 7.4 with excipients); type: physicochemical; details: for solubility at 24 h: pH 7.4, aqueous with cosolvent or surfactant or cyclodextrin, thermodynamic from solid
Procedure: In view of developing a formulation suitable for parenteral administration, the quantitative solubility of Chemical Formula land the Chemical Formula 2 were determined in phosphate buffer pH 7.4, supplemented with solubility-enhancing excipients. The target concentration is 1-1.3 mg/mL.
Based on the qualitative solubility result determined for the PBS formulation vehicle containing Transcutol (Gattefossé, France) and TPGS (tocopherol polyethylene glycol succinate), the quantitative solubility of the compound of Chemical Formula 1 and the compound of Chemical Formula 2 was determined in those vehicles to assess the maximum solubility in those vehicles. The thermodynamic solubility was then determined in PBS buffer containing Transcutol (50% and 10%) and TPGS (20% and 10%) and also in the formulation vehicles containing PEG 400 (50%, with and without presence of 2% DMSO). Suspensions of the compound of Chemical Formula 1 and the compound of Chemical Formula 2 were prepared in the selected vehicles with a compound of Chemical Formula 1 concentration of about 3.5-5 mg/mL. After incubation for 24 hours at room temperature, the solids and liquid phases were separated. The concentration of API in solution was determined by HPLC analysis. The results can be found in FIG. 6.

[7] = long-term stability study, water uptake by TGA; type: physicochemical
Procedure: as §1

[8] = pH-dependent solubility study; type: physicochemical

GI50 ([1]; Homo sapiens, EBC-1, EBC-1 cell line): 14.2 nM
AUC(0-12 h)/Dose ([2]; 5 mg/kg IV (10 mg/kg/day)): 1060 kg·nM·h/mg
AUC(12-24 h)/Dose ([2]; 5 mg/kg IV (10 mg/kg/day)): 1470 kg·nM·h/mg
AUClast/Dose ([2]; 5 mg/kg IV (10 mg/kg/day)): 1298 kg·nM·h/mg
Cl ([2]; 5 mg/kg IV (10 mg/kg/day)): 0.00086 mg/h/nM/kg
Vss ([2]; 5 mg/kg IV (10 mg/kg/day)): 0.00782 mg/nM/kg
Vz ([2]; 5 mg/kg IV (10 mg/kg/day)): 0.00283 mg/nM/kg
AUC(0-12 h)/Dose ([2]; 5 mg/kg PO (10 mg/kg/day)): 685 kg·nM·h/mg
AUC(12-24 h)/Dose ([2]; 5 mg/kg PO (10 mg/kg/day)): 798 kg·nM·h/mg
AUClast/Dose ([2]; 5 mg/kg PO (10 mg/kg/day)): 742 kg·nM·h/mg
F ([2]; 5 mg/kg PO (10 mg/kg/day)): 57.2%
Cmax1 ([2]; 5 mg/kg PO (10 mg/kg/day)): 611 nM
Tmax1 ([2]; 5 mg/kg PO (10 mg/kg/day)): 0.5-3$ h
Cmax2 ([2]; 5 mg/kg PO (10 mg/kg/day)): 802 nM
Tmax2 ([2]; 5 mg/kg PO (10 mg/kg/day)): 12.5-13$ h
AUC(0-12 h)/Dose ([2]; 20 mg/kg PO (40 mg/kg/day)): 612 kg·nM·h/mg
AUC(12-24 h)/Dose ([2]; 20 mg/kg PO (40 mg/kg/day)): 601 kg·nM·h/mg
AUClast/Dose ([2]; 20 mg/kg PO (40 mg/kg/day)): 607 kg·nM·h/mg
F ([2]; 20 mg/kg PO (40 mg/kg/day)): 46.8%
Cmax1 ([2]; 20 mg/kg PO (40 mg/kg/day)): 1600 nM
Tmax1 ([2]; 20 mg/kg PO (40 mg/kg/day)): 2-3$ h
Cmax2 ([2]; 20 mg/kg PO (40 mg/kg/day)): 2120 nM
Tmax2 ([2]; 20 mg/kg PO (40 mg/kg/day)): 12.5-14$ h
AUC ([2]; 5 mg/kg IV (10 mg/kg/day)): 7.34 µM·h
AUC ([2]; 5 mg/kg PO (10 mg/kg/day)): 3.99 µM·h
AUC ([2]; 20 mg/kg PO (40 mg/kg/day)): 12 µM·h
AUC(0-t) ([2]; iv, 5 mg/kg, 5 mg/kg IV (10 mg/kg/day), read-out: AUC(0-12 h)): 5.32 µM·h
AUC(0-t) ([2]; iv, 5 mg/kg, 5 mg/kg IV (10 mg/kg/day), read-out: AUClast): 13 µM·h
AUC(0-t) ([2]; po, 5 mg/kg, 5 mg/kg PO (10 mg/kg/day), read-out: AUC(0-12 h)): 3.43 µM·h
AUC(0-t) ([2]; po, 5 mg/kg, 5 mg/kg PO (10 mg/kg/day), read-out: AUClast): 7.42 µM·h
AUC(0-t) ([2]; po, 20 mg/kg, 20 mg/kg PO (40 mg/kg/day), read-out: AUC(0-12 h)): 12.2 µM·h
AUC(0-t) ([2]; po, 20 mg/kg, 20 mg/kg PO (40 mg/kg/day), read-out: AUClast): 24.3 µM·h
chemical purity greater than the free base form ([3]; 15 months at 40° C. and 75% relative humidity): at least 4.7%
mass loss due to change in humidity (DVS) [4]: very low
AUClast/Dose ([5]; 5 mg/kg IV): 1630 kg·nM·h/mg
AUC∞/Dose ([5]; 5 mg/kg IV): 1655 kg·nM·h/mg
Cl ([5]; 5 mg/kg IV): 0.000606 mg/h/nM/kg
Vss ([5]; 5 mg/kg IV): 0.00271 mg/nM/kg
Vz ([5]; 5 mg/kg IV): 0.00259 mg/nM/kg
AUClast/Dose ([5]; 5 mg/kg PO): 347 kg·nM·h/mg
AUC∞/Dose ([5]; 5 mg/kg PO): 355 kg·nM·h/mg
F ([5]; 5 mg/kg PO): 21.4%
AUClast/Dose ([5]; 20 mg/kg PO): 341 kg·nM·h/mg
AUC∞/Dose ([5]; 20 mg/kg PO): 346 kg·nM·h/mg
F ([5]; 20 mg/kg PO): 20.9%
AUC(0-inf) ([5]; 5 mg/kg IV): 8.27 µM·h
AUC(0-t) ([5]; 5 mg/kg IV): 8.13 µM·h
AUC(0-inf) ([5]; 5 mg/kg PO): 1.77 µM·h
AUC(0-t) ([5]; 5 mg/kg PO): 1.73 µM·h
Cmax ([5]; 5 mg/kg PO): 246 nM
Tmax ([5]; 5 mg/kg PO): 2 to 4 h
AUC(0-inf) ([5]; 20 mg/kg PO): 6.93 µM·h
AUC(0-t) ([5]; 20 mg/kg PO): 6.82 µM·h
Cmax ([5]; 20 mg/kg PO): 676 nM
Tmax ([5]; 20 mg/kg PO): 2 to 4 h
solubility at 24 h ([6]; PBS formulation vehicle with 50% Transcutol, PBS vehicle containing 50% Transcutol, 24 hours at room temperature): > 3500 µg/mL
solubility at 24 h ([6]; almost all vehicles, except for the vehicle with 10% Transcutol): > 1300 µg/mL
water content compared to the free base form ([7]; 15 months, 40 degrees centigrade, 75% relative humidity (FIG. 4), in words): nearly four times lower
water content lower than the free base form ([7]; about 15 months at 40° C. and 75% relative humidity): at least 22%
water uptake ([7]; incubation for 15 months under the tested conditions, in words): no significant water uptake
less soluble than the free base form ([8]; gastric pH (FIG. 7)): more than 50%
less soluble than the free base form ([8]; pH between 1 and 3): more than 75%
less soluble than the free base form ([8]; pH of about 1.2 in 0.05M gastric media): more than 75%
SMILES: CN1CCN(Cc2ccc(-c3cnc(N4CCOC(Cn5nnc6ncc(-c7cnn(C)c7)nc65)C4)nc3)cc2)CC1.O=C(O)/C=C\C(=O)O (stereo not shown) [Chemical Formula 2]
activity in inhibiting cancer cell growth compared to the compound of Chemical Formula 1 ([1]; in words): improved activity in inhibiting cancer cell growth
chemical degradation ([3]; 25° C./60% RH): did not show significant chemical degradation
chemical degradation ([3]; 40° C./75% RH): remained chemically stable up to 15 months
solubility compared with Chemical Formula 1 ([6]; all the formulation vehicles tested, in words): higher than that of the compound of Chemical Formula 1

From patent US11987582B2, “Maleate salts of triazolopyrazine derivatives, compositions, methods of use, and processes of manufacturing the same” (ABION Inc, priority 2021, dated 2024)
